Read-outs that look alike come from different tables or passages of the source.
Experiments:
A549 cells = experiment: DNA fragmentation (Cell Death Detection ELISA), measurement of apoptosis; conditions: Homo sapiens
[1] = Stability toward liver microsome incubation; assay type: in vitro ADME
[2] = test system: apoptosis-related proteins in A549 cells; experiment: Proteome profile of apoptosis-related proteins; assay type: cell-based, human; conditions: 5 μM
Excerpt: This example describes an assay that measured the relative expression levels of 35 apoptosis-related proteins in a single sample of whole cell extract. Methods are according to Examples 1-2 unless otherwise specified.
The protocol and reagents were purchased from R&D systems (Human apoptosis array kit; cat. #ARY009). The kit consisted of an antibody array spotted on nitrocellulose membranes with each specific antibody printed in duplicate. The detection antibodies were biotinylated so they could be used with a streptavidin-HRP conjugate designed for chemiluminescent imaging. The protocol was modified to utilize the LiCor infrared imaging technology by substituting an infrared 680 nm-tagged streptavidin.
The following day, two μl of compound dilutions in 100% DMSO were added to the appropriate wells resulting in a final concentration of 5 μM. The plates were then incubated for 6 hours at 37° C., 5% CO2, and 85% relative humidity. Following incubation, the cells were washed with 2 ml of PBS, then lysed with 500 μl/well of Lysis buffer, supplemented with a 1/200 dilution of mammalian protease inhibitor cocktail (Sigma Aldrich). The plates were shaken for 30 min at room temperature, spun @ 14,000×g for 5 minutes. 250 μl of the supernatant was removed and added to 1.25 ml of Assay buffer 1. The supernatant and Assay buffer 1 were incubated with membranes overnight at room temperature with shaking.
The following day, the membranes were washed 3 times for 10 min each, with 1× wash buffer in individual 50 ml Falcon tubes at room temperature with rotation. The membranes were incubated with a 1/100 dilution of biotinylated detection antibodies for 3 hours at room temperature with shaking.
The membranes were washed, then incubated with a 1/1000 dilution of IR 680 nm-labeled streptavidin (LiCor) for 60 minutes with shaking in the dark. The membranes were again washed. Excess buffer was blotted from membranes, placed between two pieces of transparent plastic and imaged on the LiCor infrared imager. The LiCor Odyssey software is used to quantitate the pixel intensity of each spot in the array.
First, several compounds were evaluated in a proteome profiling array system containing antibodies to 35 apoptosis-related proteins. In this assay (see Example 3), the relative expression levels of these proteins in cell extracts are measured from treated and non-treated A549 cells.

A431 cells [3] = experiment: A431 cell proliferation assay (MTT), alone and in combination with Tarceva; assay type: cell-based; conditions: for IC50: Homo sapiens, A-431, A431 cells; for A431 Cell Proliferation CI Value / synergistic effects with Tarceva in A431 cell proliferation (in words): combination with Tarceva; for A431 Cell Proliferation CI Value: CI <0.8 indicates synergy
Method: This example describes an assay that measures the ability of compounds to inhibit the proliferation of cultured cells. This assay can also be used to assess whether combining two or more compounds produces additive, synergistic, or antagonistic effects on cell growth.
On day 1, the cells were seeded at 10^3 cells per well in 100 μl of complete media under standard conditions.
On day 2, the cells were washed and 100 μl serum free media was added. The cells were then incubated for at least 2 hours before the addition of compound(s). 20 μl of compound(s) was added to the respective wells and incubated at 37° C., 5% CO2 for 72 hrs.
On day 5, 50 μl of the MTT dye solution was added to each well. The plates were incubated at 37° C., 5% CO2 for 1 hr. The media was then aspirated and the cells were resuspended in […] of DMSO. The plates were allowed to incubate for 5 min at room temperature with gentle shaking.
The absorbance in each well was determined at 560 nm using a Polarstar plate reader.
The A431 cell line over-expresses the EGF receptor, and was utilized to assess the ability of AD4 compounds to inhibit EGF-mediated cell proliferation.

[4] = test system: p53-induced reporter gene activity; experiment: p53 reporter gene assay in HEK293 cells; assay type: cell-based; conditions: 10 μM
Method: This example describes an assay that measures the ability of compounds to stimulate p53-induced reporter gene activity. In order for p53 activity to be observed, the interaction of p53 with MDM2 must be inhibited. Methods are according to Examples 1-5 unless otherwise specified.
HEK293 cells were transiently transfected with the inducible p53-responsive firefly luciferase reporter and constitutively-expressing Renilla construct. After 16 hrs of transfection at 37° C., 5% CO2, the transfection media was removed and 200 μl/well of assay media was added. The cells were then incubated for 8 hrs at 37° C., 5% CO2.
[…] of compound(s) was added to the cells and incubated for 16 hrs at 37° C. and 5% CO2. The cells were carefully washed with 200 μl of PBS. 20 μl_of lysis buffer was then added to each well and incubated at room temperature for 15 minutes with shaking.
The lysis buffer supernatant was transferred to a white/opaque CoStar 96-well plate and 100 μl of firefly luceriferase assay substrate was added. The luminescence in each well was determined using a Polarstar plate reader.
100 μl of Stop and Glow reagent was added to each well, mixed, and the luminescence generated by the Renilla luciferase was determined using a Polarstar plate reader. The Renilla signal was used to normalize the transfection efficiency and cell viability.

A431 cells [5] = experiment: Caspase 3/7 activity, measurement of apoptosis; assay type: cell-based; conditions: 10 μM compared to 10 μM Tarceva
[6] = molecular target: p53/MDM2 binding (full length MDM2) (Homo sapiens (Human), UniProt Q00987); experiment: AlphaScreen p53/MDM2 binding with full length GST-MDM2; conditions: FIG. 1, read-out: inhibition of p53/MDM2 binding EC50
Sequence of p53/MDM2 binding (full length MDM2) (Q00987 whole entry, the tested form may be a part): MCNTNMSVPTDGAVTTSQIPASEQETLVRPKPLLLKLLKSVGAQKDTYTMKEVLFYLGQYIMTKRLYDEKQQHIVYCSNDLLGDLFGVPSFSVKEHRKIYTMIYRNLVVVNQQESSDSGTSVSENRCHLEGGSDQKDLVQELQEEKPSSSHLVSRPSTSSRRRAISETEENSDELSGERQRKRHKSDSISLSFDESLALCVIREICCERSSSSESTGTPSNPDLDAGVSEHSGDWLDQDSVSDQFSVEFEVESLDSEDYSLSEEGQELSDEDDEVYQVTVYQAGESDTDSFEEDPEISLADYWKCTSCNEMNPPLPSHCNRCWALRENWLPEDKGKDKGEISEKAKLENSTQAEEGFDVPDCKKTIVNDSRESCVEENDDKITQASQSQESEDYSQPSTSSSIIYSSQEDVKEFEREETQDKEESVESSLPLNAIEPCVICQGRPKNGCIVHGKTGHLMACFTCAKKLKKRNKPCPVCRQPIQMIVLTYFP

p53/MDM2 binding = p53/MDM2 binding (Homo sapiens (Human), UniProt Q00987); experiment: AlphaScreen measurement of p53/MDM2 interaction (truncated GST-MDM2 aa 1-150)
Sequence of p53/MDM2 binding (Q00987 1-150): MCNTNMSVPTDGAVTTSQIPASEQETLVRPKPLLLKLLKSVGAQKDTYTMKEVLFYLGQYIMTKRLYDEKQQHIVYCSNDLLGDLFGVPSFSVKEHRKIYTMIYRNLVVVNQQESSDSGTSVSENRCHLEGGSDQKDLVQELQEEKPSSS
Method: The following example describes an assay that measured the ability of compounds to inhibit the binding of p53 to MDM2 using the AlphaScreen assay technology (PerkinElmer). […] Recombinant, truncated, human, N-terminal GST-MDM2 (aa 1-150) was obtained from GeneScript. Wild-type, full length human N-terminal 6-his p53 was purchased from SignalChem.
Resulting in a final reaction volume of 24 μl PBS, 0.1% Tween-20, and 10% glycerol, 30 ng of MDM2 was added, followed by the addition of 10 of compound diluted in 100% DMSO that provided a final DMSO concentration of 4%. 30 ng of p53 was then added, mixed, and incubated at room temperature for 1 hour. Glutathione donor beads and Nickel acceptor beads (0.5 μg each; PerkinElmer) were added under subdued lighting conditions to a final reaction volume of 30 μl/well in a 96 well, ½ volume Proxima plate. The reaction was incubated at room temperature with shaking for 18 hrs in the dark. Analysis was then performed on a PerkinElmer EnSpire plate reader to determine the ability of compounds to inhibit the binding of p53 to MDM2.

[7] = A549, read-out: % Inc. Relative to Staurosporin (500 nM), DNA fragmentation
[8] = A549, read-out: % Inc. over Background, DNA fragmentation
[9] = further studies, Example 9, Table 7A, read-out: A431 Cell Proliferation (IC50 Value)
[10] = preliminary assessment, Example 8, Table 6A, read-out: A431 Cell Proliferation (IC50)
[11] = Table 7C, read-out: p53/MDM2 IC50 Value
[12] = Table 9, read-out: Inhibition of p53/MDM2 Binding IC50 Value

| Compound | activation at 1 µM (A549 cells; [7]) [%] | activation at 10 µM (A549 cells; [7]) [%] | activation at 1 µM (A549 cells; [8]) [%] | activation at 10 µM (A549 cells; [8]) [%] | stability (toward liver microsome incubation) [1] | phosphorylated forms of p53 [2] | IC50 (A431 cells [3]; [9]) [nM] | A431 Cell Proliferation CI Value (A431 cells [3]; Example 9, Table 7B) | other results |
| --- | --- | --- | --- | --- | --- | --- | --- | --- | --- |
| Oc1c(C(Nc2ncc(C(F)(F)F)cc2F)c2ccc(Cl)cc2Cl)ccc2cccnc12 (centres unmarked) [AD4-13165] | 24 | 74 | 172 | 582 | increased stability | increased all three phosphorylated forms of p53 |  |  |  |
| Cc1cc(Cl)cnc1NC(c1ccc(C(F)(F)F)cc1)c1ccc2cccnc2c1O (centres unmarked) [AD4-13041] |  |  |  |  | increased stability over AD4-10628 |  | 2000 | 0.69 |  |
| COc1ccc(C(Nc2cc(C)ccn2)c2ccc3cccnc3c2O)cc1O (centres unmarked) [AD4-1505] |  |  |  |  |  |  | 3700 | 0.29 | stimulation of p53 reporter gene activity [4]: 42.5 fold; Caspase 3/7 activity % Increase Relative to Tarceva (A431 cells [5]): 45%; EC50 [6]: 270 nM; IC50 (A431 cells [3]; [10]): 3700 nM; synergistic effects with Tarceva in A431 cell proliferation (in words) (A431 cells [3]): produced the greatest effects; A431 Cell Proliferation CI Value (A431 cells [3]; Example 8, Table 6B): 0.45; IC50 (p53/MDM2 binding; [11]): 3600 nM; IC50 (p53/MDM2 binding; [12]): 4200 nM |
| Cc1nc(NC(c2ccc(Cl)cc2Cl)c2ccc3cccnc3c2O)c(Cl)cc1Cl (centres unmarked) [AD4-13206] |  |  |  |  | increased stability |  |  |  |  |
| Cc1cc(Cl)cnc1NC(c1ccc(C(F)(F)F)cc1F)c1ccc2cccnc2c1O (centres unmarked) [AD4-13042] |  |  |  |  | increased stability |  | 2200 | 0.81 |  |
| Cc1cc(Cl)cnc1NC(c1ccc(Cl)cc1Cl)c1ccc2cccnc2c1O (centres unmarked) [AD4-13130] | 58 | 65 | 565 | 614 |  | increased all three phosphorylated forms of p53 |  |  |  |
| Cc1cc(Cl)cnc1NC(c1ccc(Cl)c(F)c1)c1ccc2cccnc2c1O (centres unmarked) [AD4-13229] | 68 | 84 | 531 | 667 |  | increased all three phosphorylated forms of p53 |  |  |  |
| CCc1cc(Cl)cnc1NC(c1ccc(Cl)cc1)c1ccc2cccnc2c1O (centres unmarked) [AD4-13225] | 48 | 42 | 508 | 458 |  | increased all three phosphorylated forms of p53 |  |  |  |
| Cc1ccnc(NC(c2ccc3cccnc3c2O)c2sccc2C)c1 (centres unmarked) [AD4-10963] |  |  |  |  |  |  | 3400 | 0.63 | Caspase 3/7 activity % Increase Relative to Tarceva (A431 cells [5]): 38%; EC50 [6]: 100 nM; IC50 (A431 cells [3]; [10]): 3400 nM; synergistic effects with Tarceva in A431 cell proliferation (in words) (A431 cells [3]): produced the greatest effects; A431 Cell Proliferation CI Value (A431 cells [3]; Example 8, Table 6B): 0.43; IC50 (p53/MDM2 binding; [11]): 2000 nM; IC50 (p53/MDM2 binding; [12]): 2000 nM |

From patent US9023354B2, “Combination therapy with MDM2 and EFGR inhibitors” (priority 2010, dated 2015)
